Test results as given in patent US10975063B2, “Compound, and production method thereof, and methods of treatment using the compound” (ABIVAX, priority 2009, dated 2021).

Each compound was assayed on HIV-1 (assay: Inhibition of HIV-1 production (p24 antigen) in infected peripheral blood mononuclear cells (PBMCs)). Details: Human immunodeficiency virus 1, PBMC; p24 production in HIV infected PBMCs; dose response curves.
Format: cell-based, HIV-1 (AdaM) in PBMCs of healthy donors
Procedure: Within this framework, the peripheral blood mononuclear cells (PBMCs) of healthy donors are isolated by centrifugation on a FICOLL gradient. The cells are then cultivated to a density of 2.5×10^6 cells/ml with RPMI medium supplemented with 1% inactivated human AB serum, then incubated at 37° C., 5% CO2 for an additional hour. The peripheral blood mononuclear cells are then recovered and cultivated for two days in RPMI medium supplemented with 10% fetal calf serum.
A standard experiment using 96 plates to test 30 molecules in triplicates including positive and negative controls, is performed as follows:
50 10^6 Ficoll purified PBMCs (10% DMSO 90% FCS) are washed with RPMI 10% FCS and resuspended in 25 ml of RPMI 10% FCS, glutamax containing 1000 U/ml of IL2 and 5 μg/ml PHA. The cells are then incubated for 3 days at 37° C. before to be washed with 50 ml PBS then with 50 ml RPMI 10% FCS. The cells are resuspended in 100 μl of RPMI 10% FCS containing 100 U/ml IL2 and seeded in 96 wells (1.5 10^5 cells/well). Viral infection is performed with 1 ng of AdaM/well. 100 μl of tested molecules at concentration of 10 μM are added to each well. Virus production is determined by p24 antigen immunosorbent assays after 3 and 6 days of infection (Kit Innogenetics). Typically PBMCs are prepared from several healthy donors (around 11 different donors). Dose response curves were then established with selected compounds to determine IC50.

| Compound | IC50 |
| --- | --- |
| Cc1ccnc(Nc2ccc3cccc(Cl)c3n2)c1 [Compound 6, (8-Chloro-quinolin-2-yl)-(4-methyl-pyridin-2-yl)-amine] | 0.1 nM |
| Fc1ccc(Nc2ccc3cccc(Cl)c3n2)nc1 [Compound 43, 8-chloro-N-(5-fluoropyridin-2-yl)quinolin-2-amine] | 0.1 nM |
| COc1ccc(Nc2ccc3cccc(Cl)c3n2)cc1 [Compound 77, 8-chloro-N-(4-methoxyphenyl)quinolin-2-amine] | 0.05 nM |
| Cc1cc2ccccc2nc1Nc1ccc(OC(F)(F)F)cc1 [Compound 80, 3-methyl-N-[4-(trifluoromethoxy)phenyl]quinolin-2-amine] | 1 nM |
| FC(F)(F)Oc1ccc(Nc2ccc3cccc(Cl)c3n2)cc1 [Compound 90, 8-chloro-N-[4-(trifluoromethoxy)phenyl]quinolin-2-amine] | 0.1 nM |
| Clc1cccc2ccc(Nc3cnccn3)nc12 [Compound 112, 8-chloro-N-(pyrazin-2-yl)quinolin-2-amine] | 0.1 nM |

Same assay, conditions: tested molecules at 10 μM; p24 after 3 and 6 days of infection; number of donors with inhibition out of donors tested

| Compound | Inhibition of p24 production in HIV infected PBMCs from different donors |
| --- | --- |
| Fc1ccc(Nc2ccc3cccc(Cl)c3n2)nc1 [Compound 43, 8-chloro-N-(5-fluoropyridin-2-yl)quinolin-2-amine] | 8 out of 10 donnors |
| Cc1cccc(Nc2nc3ccccc3cc2C)n1 [Compound 46, 3-methyl-N-(6-methylpyridin-2-yl)quinolin-2-amine] | 4 out of 4 donnors |
| CCc1cccc(Nc2ccc3cccc(Cl)c3n2)n1 [Compound 50, 8-chloro-N-(6-ethylpyridin-2-yl)quinolin-2-amine] | 4 out of 4 donnors |
| Cc1ccnc(Nc2ccc3c([N+](=O)[O-])cccc3n2)c1 [Compound 64, N-(4-methylpyridin-2-yl)-5-nitroquinolin-2-amine] | 5 out of 5 donnors |
| FC(F)(F)c1ccnc(Nc2ccc3cccc(Cl)c3n2)c1 [Compound 68, 8-chloro-N-[4-(trifluoromethyl)pyridin-2-yl]quinolin-2-amine] | 4 out of 4 donnors |
| Oc1cccnc1Nc1ccc2cccc(Cl)c2n1 [Compound 69, 2-[(8-chloroquinolin-2-yl)amino]pyridin-3-ol] | 4 out of 4 donnors |
| FC(F)(F)c1cccc(Nc2ccc3cccc(Cl)c3n2)n1 [Compound 70, 8-chloro-N-[6-(trifluoromethyl)pyridin-2-yl]quinolin-2-amine] | 4 out of 4 donnors |
| Fc1ccc(Nc2ccc3cc(Cl)ccc3n2)nc1 [Compound 71, 6-chloro-N-(5-fluoropyridin-2-yl)quinolin-2-amine] | 4 out of 4 donnors |
| CCc1cccc(Nc2nc3ccccc3cc2C)n1 [Compound 72, N-(6-ethylpyridin-2-yl)-3-methylquinolin-2-amine] | 4 out of 4 donnors |
| Cc1cc2ccccc2nc1Nc1ccc(F)cn1 [Compound 73, N-(5-fluoropyridin-2-yl)-3-methylquinolin-2-amine] | 4 out of 4 donnors |
| Cc1cc2ccccc2nc1Nc1ccc(C(F)(F)F)cn1 [Compound 74, 3-methyl-N-[5-(trifluoromethyl)pyridin-2-yl]quinolin-2-amine] | 4 out of 4 donnors |
| CN(C)c1ccc(Nc2ccc3cccc(Cl)c3n2)cc1 [Compound 75, 4-N-(8-chloroquinolin-2-yl)-1-N,1-N-dimethylbenzene-1,4-diamine] | 6 out of 7 donnors |
| COc1ccc(Nc2ccc3cccc(Cl)c3n2)cc1 [Compound 77, 8-chloro-N-(4-methoxyphenyl)quinolin-2-amine] | 11 out of 13 donnors |
| Cc1cc(Nc2ccc(OC(F)(F)F)cc2)nc2ccccc12 [Compound 78, 4-methyl-N-[4-(trifluoromethoxy)phenyl]quinolin-2-amine] | 7 out of 8 donnors |
| COc1ccc(Nc2nc3ccccc3cc2C)cc1 [Compound 79, N-(4-methoxyphenyl)-3-methylquinolin-2-amine] | 7 out of 8 donnors |
| Cc1cc2ccccc2nc1Nc1ccc(OC(F)(F)F)cc1 [Compound 80, 3-methyl-N-[4-(trifluoromethoxy)phenyl]quinolin-2-amine] | 7 out of 8 donnors |
| Cc1cc2ccccc2nc1Nc1ccc(N(C)C)cc1 [Compound 81, 1-N,1-N-dimethyl-4-N-(3-methylquinolin-2-yl)benzene-1,4-diamine] | 4 out of 4 donnors |
| FC(F)(F)Oc1cccc(Nc2ccc3cccc(Cl)c3n2)c1 [Compound 87, 8-chloro-N-[3-(trifluoromethoxy)phenyl]quinolin-2-amine] | 4 out of 4 donnors |
| Fc1cccc(Nc2ccc3cccc(Cl)c3n2)c1 [Compound 88, 8-chloro-N-(3-fluorophenyl)quinolin-2-amine] | 4 out of 4 donnors |
| FC(F)(F)Oc1ccc(Nc2ccc3cccc(Cl)c3n2)cc1 [Compound 90, 8-chloro-N-[4-(trifluoromethoxy)phenyl]quinolin-2-amine] | 8 out of 10 donnors |
| Cc1cc2ccccc2nc1Nc1cccc(OC(F)(F)F)c1 [Compound 92, 3-methyl-N-[3-(trifluoromethoxy)phenyl]quinolin-2-amine] | 3 out of 5 donnors |
| FC(F)(F)Oc1ccc(Nc2ccc3cc(Cl)ccc3n2)cc1 [Compound 96, 6-chloro-N-(4-(trifluoromethoxy)phenyl)quinolin-2-amine] | 5 out of 6 donnors |
| FC(F)(F)Oc1ccc(Nc2ccc3cccc(Cl)c3n2)cc1Cl [Compound 104, 8-chloro-N-[3-chloro-4-(trifluoromethoxy)phenyl]quinolin-2-amine] | 4 out of 4 donnors |
| Clc1cccc2ccc(Nc3cnccn3)nc12 [Compound 112, 8-chloro-N-(pyrazin-2-yl)quinolin-2-amine] | 12 out of 13 donnors |
| Cc1ccnc(Nc2nc3ccccc3nc2C(F)(F)F)c1 [Compound 139, N-(4-methylpyridin-2-yl)-3-(trifluoromethyl)quinoxalin-2-amine] | 4 out of 4 donnors |
| Cc1c(Cl)cnc(Nc2cnc3ccccc3n2)c1Cl [Compound 140, N-(3,5-dichloro-4-methylpyridin-2-yl)quinoxalin-2-amine] | 4 out of 4 donnors |
| Cc1ccnc(Nc2cnc3ccccc3n2)c1[N+](=O)[O-] [Compound 141, N-(4-methyl-3-nitropyridin-2-yl)quinoxalin-2-amine] | 4 out of 4 donnors |
